One series is described as follows: method code SF, from PMID: 6889867. The note with it: pH 7.4.
As for `COc1c(Cl)cc(Cc2cnc(N)nc2N)cc1Cl`, the logD – broadly, the decadic logarithm of the distribution of all forms, ionised or not, between an organic phase and buffer at a given pH – amounted to 2.59.

The next series is described as follows: method code SF-AS, from PMID: 6889867.
Conditions: not given
As to `COc1cc(Cc2cnc(N)nc2N)ccc1O`, the logP – broadly, the decadic logarithm of the partition coefficient of the neutral form, usually between octanol and water – was 0.64. In the case of `COc1cc(Cc2cnc(N)nc2N)ccc1C(C)(C)O`, the logP came out at 1.38. On the same count and under the same terms, with `COc1cc(Cc2cnc(N)nc2N)cc(OC)c1CO` the figure was 0.42; with `COc1c(C)cc(Cc2cnc(N)nc2N)cc1C`, 2.19. Same read-out and setting: the same measure for `COCCOc1c(OC)cc(Cc2cnc(N)nc2N)cc1OC`: 0.56; for `COc1cc(OC)c(OC)cc1Cc1cnc(N)nc1N`: 1.17; for `COc1cc(Cc2cnc(N)nc2N)cc(C)c1OC`: 1.62. `COc1ccc(Cc2cnc(N)nc2N)cc1OC` gave a logP of 0.97. On the same count and under the same terms, the same measure for `COc1cc(Cc2cnc(N)nc2N)cc(OC)c1O`: 0.37; for `COc1cccc(Cc2cnc(N)nc2N)c1`: 1.54; for `COc1cc(Cc2cnc(N)nc2N)cc(OC)c1SC`: 1.54. For the compound `COc1cc(C)c(Cc2cnc(N)nc2N)cc1OC`, the logP came to 1.23. The same measure, in the same setting: with `COc1cc(Cc2cnc(N)nc2N)cc(OCc2ccccc2)c1OC` the figure was 2.37; with `COc1cc(Cc2cnc(N)nc2N)cc(OC)c1OCc1ccccc1`, 2.46. For the compound `C=C(C)c1c(OC)cc(Cc2cnc(N)nc2N)cc1OCC`, the logP came out at 2.65. Same read-out and setting: with `COc1cc(Cc2cnc(N)nc2N)cc(OC)c1C(=O)OC(C)C` the figure was 1.72; with `CNc1cc(Cc2cnc(N)nc2N)cc(N(C)C(C)=O)c1C`, 0.53; with `Nc1ccc(Cc2cnc(N)nc2N)cc1`, 0.22.

As to `COc1cc(Cc2cnc(N)nc2N)cc(OC)c1C(=O)N(C)C`, the logP is -0.21. On the same count and under the same terms, the same measure for `COc1c(O)cc(Cc2cnc(N)nc2N)cc1O`: -0.04; for `COc1cc(Cc2cnc(N)nc2N)cc(OC)c1-n1cccc1`: 1.78. On the same count and under the same terms, with `CCOc1c(OC)cc(Cc2cnc(N)nc2N)cc1OC` the figure was 1.34; with `COc1cc(C)c(Cc2cnc(N)nc2N)cc1OCc1ccccc1`, 2.69.

The compound `CCSc1c(OC)cc(Cc2cnc(N)nc2N)cc1OC` registered a log partition coefficient (logP) of 1.79. With `COc1ccc(Cc2cnc(N)nc2N)cc1OCc1ccccc1`, the lipophilicity (logP) was found to be 2.44.

In turn, `CN(C)c1cc(Cc2cnc(N)nc2N)cc(N(C)C)c1` had a logP of 1.6. Still for that read-out and setting: the same measure for `CCOC(=O)c1c(OC)cc(Cc2cnc(N)nc2N)cc1OC`: 1.25; for `CCOc1cc(Cc2cnc(N)nc2N)cc(OCC)c1C(=O)CS(C)(=O)=O`: 0.79; for `COc1cc(Cc2cnc(N)nc2N)cc(O)c1O`: -0.31. The same measure, in the same setting: with `Cc1c(N(C)C)cc(Cc2cnc(N)nc2N)cc1N(C)C` the figure was 2.06; with `COc1cc(Cc2cnc(N)nc2N)cc(OC)c1C(=O)CS(C)(=O)=O`, -0.31. `COc1cc(Cc2cnc(N)nc2N)cc(OC)c1Cl` showed a logP of 1.87. Still for that read-out and setting: with `COC(=O)COc1c(OC)cc(Cc2cnc(N)nc2N)cc1OC` the figure was 0.55; with `COCc1c(OC)cc(Cc2cnc(N)nc2N)cc1OC`, 1.19. In the case of `CCCCOc1cc(Cc2cnc(N)nc2N)c(C)cc1OC`, the log partition coefficient (logP) was 2.78. The same measure, in the same setting: the same measure for `COc1cc(Cc2cnc(N)nc2N)cc(OC)c1OCC#N`: 0.72; for `CNc1cc(Cc2cnc(N)nc2N)cc(NC)c1`: 0.44; for `COc1cc(Cc2cnc(N)nc2N)ccc1OCc1ccccc1`: 2.66.

The series is the same for the next values; noted with them: pH 7.4.
In turn, `COc1ccc(Cc2cnc(N)nc2N)c(OC)n1` came in with a logD of 1.83. On the same count and under the same terms, with `CCOc1cc(Cc2cnc(N)nc2N)cc(OCC)c1N` the figure was 1.5; with `COc1cc(Cc2cnc(N)nc2N)cc(OC)c1N`, 0.6; with `COc1c(N(C)C)cc(Cc2cnc(N)nc2N)cc1N(C)C`, 1.86. In the case of `COc1cc(Cc2cnc(N)nc2N)ccc1C`, the logD stood at 1.95. Same read-out and setting: the same measure for `CCOc1cc(Cc2cnc(N)nc2N)cc(OCC)c1-n1cccc1`: 2.74; for `COc1c(OCc2ccccc2)cc(Cc2cnc(N)nc2N)cc1OCc1ccccc1`: 3.7; for `COc1cc(Cc2cnc(N)nc2N)cc(I)c1OC`: 2.14. On the same count and under the same terms, the same measure for `COc1cc(Cc2cnc(N)nc2N)cc(Cl)c1OC`: 1.73.

`C=CCc1c(OCC)cc(Cc2cnc(N)nc2N)cc1OCC`: the logD stood at 2.89.

For the compound `COC(=O)c1c(OC)cc(Cc2cnc(N)nc2N)cc1OC`, the logD was found to be 0.76. For the compound `CCOc1cc(Cc2cnc(N)nc2N)cc(OC)c1C(C)(C)O`, the logD was 1.92. Compound `O=C1CN=C(c2ccccc2F)c2cc(I)ccc2N1CC(O)CO` (centres undefined) had a logD of 1.81. The compound `COc1cc(Cc2cnc(N)nc2N)cc(OC)c1C#N` came in with a logD of 1.2. In turn, `CNc1cc(Cc2cnc(N)nc2N)cc(N(C)C)c1OC` registered a logD of 1.56. Turning to `Nc1ncc(Cc2cc(Cl)c(Cl)c(Cl)c2)c(N)n1`, the logD is 3.45. On the same count and under the same terms, the same measure for `COc1cncc(OC)c1Cc1cnc(N)nc1N`: 1.48; for `COc1cc(Cc2cnc(N)nc2N)cc2c1OCO2`: 1.19; for `Nc1ncc(Cc2ccc3c(c2)OCO3)c(N)n1`: 1.3. On the same count and under the same terms, the same measure for `CCOc1cc(Cc2cnc(N)nc2N)cc(OCC)c1C(C)(C)O`: 2.3.

The compound `COc1ccc(Cc2cnc(N)nc2N)cc1O` came in with a logD of 0.55.

In turn, `COc1cc(Cc2cnc(N)nc2N)cc(OC)c1C(C)C` displayed a logD of 3.18. Still for that read-out and setting: the same measure for `COc1cc(Cc2cnc(N)nc2N)ccc1SC`: 1.73; for `CCOc1cc(Cc2cnc(N)nc2N)cc(OCC)c1C(C)=O`: 1.85; for `Cc1cc2c(cc1Cc1cnc(N)nc1N)OCO2`: 1.7. The compound `COc1cc(Cc2cnc(N)nc2N)cc(OCc2ccccc2)c1OCc1ccccc1` yielded a log distribution coefficient (logD) of 3.9. Same read-out and setting: the same measure for `COc1cc(Cc2cnc(N)nc2N)cc(OC)c1C(C)=O`: 0.91.

Consider `CCOC(=O)c1c(OCC)cc(Cc2cnc(N)nc2N)cc1OCC`, for which the logD was found to be 2.09. Same read-out and setting: the same measure for `COc1cc(Cc2cnc(N)nc2N)cc(OC)c1C(C)(C)O`: 1.3; for `Nc1ncc(Cc2cc3c(cc2Br)OCO3)c(N)n1`: 2.3; for `COc1cc(OC)c(Cl)c(Cc2cnc(N)nc2N)c1Cl`: 2.32.

`COc1cc(Cc2cnc(N)nc2N)c(Cl)c(OC)c1`: the logD was determined as 1.94. The compound `COc1cc(Cc2cnc(N)nc2N)cc(OC)c1Br` had a logD of 1.82. On to `Nc1ncc(Cc2cc(Cl)c(Cl)cc2Cl)c(N)n1`, for which the logD was 3.6. As for `COc1cc(Cc2cnc(N)nc2N)cc(OC)c1I`, the logD was determined as 2.21.

The values are drawn from the SangsterLogP compilation.
